Drawing on ChEMBL document CHEMBL1156029, “The discovery of thienopyridine analogues as potent IkappaB kinase beta inhibitors. Part II” (Bioorg Med Chem Lett, 2009), this text covers IC50 and Activity for 4 molecules.

Molecules are shown by their SMILES. pIC50: −log10 of the molar value. Active and inactive are the calls of the source. The rule behind the calls is not given here.

Experiment [1] deals with T1, Tyrosine-protein kinase ITK/TSK (Homo sapiens, UniProt Q08881).
T1 sequence (Q08881 whole entry): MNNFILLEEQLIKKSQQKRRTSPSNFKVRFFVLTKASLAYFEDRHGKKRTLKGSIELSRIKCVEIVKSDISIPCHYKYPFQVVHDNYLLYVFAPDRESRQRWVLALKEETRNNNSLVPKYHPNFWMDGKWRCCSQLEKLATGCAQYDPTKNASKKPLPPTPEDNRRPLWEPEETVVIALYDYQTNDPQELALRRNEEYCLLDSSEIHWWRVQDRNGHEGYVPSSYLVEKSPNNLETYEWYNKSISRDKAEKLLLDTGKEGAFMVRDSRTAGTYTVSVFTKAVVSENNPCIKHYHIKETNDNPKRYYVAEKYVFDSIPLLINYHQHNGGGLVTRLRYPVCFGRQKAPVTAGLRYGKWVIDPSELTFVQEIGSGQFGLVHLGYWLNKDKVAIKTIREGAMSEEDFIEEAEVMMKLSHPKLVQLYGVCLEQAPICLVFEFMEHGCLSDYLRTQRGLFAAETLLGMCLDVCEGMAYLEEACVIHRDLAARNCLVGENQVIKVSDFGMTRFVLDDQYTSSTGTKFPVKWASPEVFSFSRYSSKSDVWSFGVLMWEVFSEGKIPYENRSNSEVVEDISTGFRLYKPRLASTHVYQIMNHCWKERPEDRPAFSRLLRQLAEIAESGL
The experiment in a line: Inhibition of Itk.

Experiment [2] deals with Tyrosine-protein kinase SYK (Homo sapiens, UniProt P43405). Kind of experiment: Inhibition of Syk.
The subject of another experiment is HeLa. The experiment in a line: Inhibition of TNF-alpha-induced NF-kappaB transfected in human HeLa cells preincubated for 30 mins before TNFalpha challenge after 6 hrs by luciferase reporter gene assay. The experiment is classed as cell-based. (A reporter such as luciferase makes a cellular process visible.)
Experiment [3] deals with T2, Inhibitor of nuclear factor kappa-B kinase subunit beta (Homo sapiens, UniProt O14920).
T2 sequence (O14920 whole entry): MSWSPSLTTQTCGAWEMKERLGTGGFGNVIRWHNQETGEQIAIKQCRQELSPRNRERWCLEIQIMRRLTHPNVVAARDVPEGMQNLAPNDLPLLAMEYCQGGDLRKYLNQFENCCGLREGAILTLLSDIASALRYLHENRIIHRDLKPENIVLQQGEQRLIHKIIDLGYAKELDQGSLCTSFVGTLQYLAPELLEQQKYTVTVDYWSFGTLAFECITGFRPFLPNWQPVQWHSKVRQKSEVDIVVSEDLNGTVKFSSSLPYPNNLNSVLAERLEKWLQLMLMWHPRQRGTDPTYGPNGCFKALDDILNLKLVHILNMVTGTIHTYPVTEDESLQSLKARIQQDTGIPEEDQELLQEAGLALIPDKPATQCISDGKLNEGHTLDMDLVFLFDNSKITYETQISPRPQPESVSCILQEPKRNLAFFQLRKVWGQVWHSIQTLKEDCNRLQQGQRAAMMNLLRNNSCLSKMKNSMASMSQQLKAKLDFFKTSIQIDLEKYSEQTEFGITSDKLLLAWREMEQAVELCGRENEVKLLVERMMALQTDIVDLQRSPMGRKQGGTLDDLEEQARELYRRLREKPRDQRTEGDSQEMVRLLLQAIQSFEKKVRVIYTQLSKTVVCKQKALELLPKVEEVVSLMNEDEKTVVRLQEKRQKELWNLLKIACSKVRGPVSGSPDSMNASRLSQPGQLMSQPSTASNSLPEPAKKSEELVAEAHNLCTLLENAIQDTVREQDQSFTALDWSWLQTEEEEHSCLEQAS
The experiment in a line: Inhibition of Flag epitope-tagged IKK-beta preincubated for 5 mins by scintillation proximity assay. (In general: SPA uses beads or plates that emit light when radiolabelled molecules are held near them.)

The target of experiment [4] is T3, Inhibitor of nuclear factor kappa-B kinase subunit alpha (Homo sapiens, UniProt O15111).
T3 sequence (O15111 whole entry): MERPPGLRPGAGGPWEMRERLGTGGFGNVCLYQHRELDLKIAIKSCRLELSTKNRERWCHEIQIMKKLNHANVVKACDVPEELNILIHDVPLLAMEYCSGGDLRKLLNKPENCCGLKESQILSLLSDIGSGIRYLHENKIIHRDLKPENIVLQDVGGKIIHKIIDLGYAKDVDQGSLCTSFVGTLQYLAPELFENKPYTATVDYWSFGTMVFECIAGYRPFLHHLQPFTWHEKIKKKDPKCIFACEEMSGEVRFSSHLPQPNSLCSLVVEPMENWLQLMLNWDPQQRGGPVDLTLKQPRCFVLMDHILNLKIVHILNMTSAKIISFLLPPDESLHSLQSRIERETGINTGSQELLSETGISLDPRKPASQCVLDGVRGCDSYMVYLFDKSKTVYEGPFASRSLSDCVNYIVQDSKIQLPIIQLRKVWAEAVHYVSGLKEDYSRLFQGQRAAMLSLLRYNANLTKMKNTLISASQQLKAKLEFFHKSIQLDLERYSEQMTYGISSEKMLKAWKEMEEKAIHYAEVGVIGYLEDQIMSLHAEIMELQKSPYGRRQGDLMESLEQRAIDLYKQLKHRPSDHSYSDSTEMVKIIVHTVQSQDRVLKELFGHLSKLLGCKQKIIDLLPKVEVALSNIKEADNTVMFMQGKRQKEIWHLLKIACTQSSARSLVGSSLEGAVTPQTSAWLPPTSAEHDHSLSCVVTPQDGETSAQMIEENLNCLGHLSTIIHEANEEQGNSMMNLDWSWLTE
Kind of experiment: Inhibition of IKKalpha.

Experiment [5] has as its target Mitogen-activated protein kinase 1 (Homo sapiens) (UniProt P28482). Kind of experiment: Inhibition of MAPK2/ERK2 at 10 uM.
The target of experiment [6] is T4, Mitogen-activated protein kinase 13 (Homo sapiens) (UniProt O15264).
T4 sequence (whole entry): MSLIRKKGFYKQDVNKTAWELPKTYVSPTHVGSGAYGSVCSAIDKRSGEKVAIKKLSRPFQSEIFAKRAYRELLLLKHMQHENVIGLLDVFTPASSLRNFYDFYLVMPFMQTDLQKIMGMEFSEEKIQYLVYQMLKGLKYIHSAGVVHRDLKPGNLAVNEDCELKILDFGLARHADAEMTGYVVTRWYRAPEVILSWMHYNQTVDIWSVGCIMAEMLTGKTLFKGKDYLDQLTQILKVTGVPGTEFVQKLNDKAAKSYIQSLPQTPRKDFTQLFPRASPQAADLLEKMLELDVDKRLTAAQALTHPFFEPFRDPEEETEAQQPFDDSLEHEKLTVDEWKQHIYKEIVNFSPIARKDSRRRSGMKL
The experiment in a line: Inhibition of p38delta at 10 uM.

Experiment [7] has as its target MAP kinase-activated protein kinase 2 (Homo sapiens) (UniProt P49137). The experiment in a line: Inhibition of MAPKAP-K2 at 10 uM.
Experiment [8] addresses Protein kinase C alpha type (Homo sapiens) (UniProt P17252). The experiment in a line: Inhibition of PKCalpha at 10 uM.
Experiment [9] has as its target Ribosomal protein S6 kinase beta-1 (Homo sapiens) (UniProt P23443). Kind of experiment: Inhibition of S6K1 at 10 uM.
A short description of experiment [10]: Inhibition of AMPK at 10 uM.
Experiment [11] concerns the target Casein kinase I isoform alpha (Homo sapiens) (UniProt P48729). The experiment in a line: Inhibition of CK1 at 10 uM.

In general, pIC50 refers to −log10 of the IC50, conventionally taken in molar units. High values mean a small IC50, low ones a large IC50. What is called IC50 is the concentration at which inhibition is half-maximal. A low value points to greater potency in that assay.

Chain of Ribosomal protein S6 kinase beta-1 (Homo sapiens) (P23443 whole entry, looked up): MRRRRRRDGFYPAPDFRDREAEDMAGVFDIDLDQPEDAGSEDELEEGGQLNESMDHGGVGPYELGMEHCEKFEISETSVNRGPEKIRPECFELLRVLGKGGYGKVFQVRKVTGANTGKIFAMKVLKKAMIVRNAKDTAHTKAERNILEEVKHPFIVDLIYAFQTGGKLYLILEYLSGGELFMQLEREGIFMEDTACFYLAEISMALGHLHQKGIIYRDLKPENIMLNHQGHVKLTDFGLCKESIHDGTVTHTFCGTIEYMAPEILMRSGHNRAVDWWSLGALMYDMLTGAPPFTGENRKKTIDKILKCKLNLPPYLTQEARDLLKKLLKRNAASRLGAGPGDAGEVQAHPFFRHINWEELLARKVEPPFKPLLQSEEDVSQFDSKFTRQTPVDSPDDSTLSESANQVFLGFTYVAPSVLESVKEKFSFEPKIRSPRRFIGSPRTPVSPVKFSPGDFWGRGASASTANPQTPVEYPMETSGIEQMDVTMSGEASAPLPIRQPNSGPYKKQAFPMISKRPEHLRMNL
Chain of Mitogen-activated protein kinase 1 (Homo sapiens) (P28482 whole entry): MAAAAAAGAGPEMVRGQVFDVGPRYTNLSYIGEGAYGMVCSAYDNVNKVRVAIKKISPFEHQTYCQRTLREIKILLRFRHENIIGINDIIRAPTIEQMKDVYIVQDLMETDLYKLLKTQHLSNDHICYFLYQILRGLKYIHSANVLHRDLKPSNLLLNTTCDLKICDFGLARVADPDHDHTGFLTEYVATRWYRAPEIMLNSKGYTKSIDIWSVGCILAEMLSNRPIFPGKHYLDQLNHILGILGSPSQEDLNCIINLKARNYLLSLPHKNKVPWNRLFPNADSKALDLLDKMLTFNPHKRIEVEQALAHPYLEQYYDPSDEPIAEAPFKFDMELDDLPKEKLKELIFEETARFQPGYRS
Chain of MAP kinase-activated protein kinase 2 (Homo sapiens) (P49137 whole entry, looked up): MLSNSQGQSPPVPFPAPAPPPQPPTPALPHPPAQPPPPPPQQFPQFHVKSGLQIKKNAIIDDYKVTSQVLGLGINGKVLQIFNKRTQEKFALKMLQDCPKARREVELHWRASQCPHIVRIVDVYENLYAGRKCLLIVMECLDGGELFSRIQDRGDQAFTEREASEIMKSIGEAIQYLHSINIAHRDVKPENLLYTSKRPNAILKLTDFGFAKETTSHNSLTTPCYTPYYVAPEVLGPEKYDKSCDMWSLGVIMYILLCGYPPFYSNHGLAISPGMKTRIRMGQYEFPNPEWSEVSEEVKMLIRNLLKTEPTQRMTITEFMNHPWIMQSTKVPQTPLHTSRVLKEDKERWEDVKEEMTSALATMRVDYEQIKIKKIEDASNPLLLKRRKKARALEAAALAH
Chain of Casein kinase I isoform alpha (Homo sapiens) (P48729 2-337 limits assumed): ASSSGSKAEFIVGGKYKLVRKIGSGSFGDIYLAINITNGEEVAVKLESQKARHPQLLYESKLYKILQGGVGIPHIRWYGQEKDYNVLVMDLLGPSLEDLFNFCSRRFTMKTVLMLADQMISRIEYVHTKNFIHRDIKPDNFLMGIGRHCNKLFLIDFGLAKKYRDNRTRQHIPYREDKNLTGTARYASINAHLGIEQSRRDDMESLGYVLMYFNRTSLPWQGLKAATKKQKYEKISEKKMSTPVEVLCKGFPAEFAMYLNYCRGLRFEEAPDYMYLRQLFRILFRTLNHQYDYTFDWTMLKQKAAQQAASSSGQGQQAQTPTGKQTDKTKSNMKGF

For the molecule `CCCc1cc(N2CCNCC2)nc2sc(C(N)=O)c(N)c12`, the pIC50 in experiment [1] is less than 5.15; in experiment [2], less than 5.15; in [3], 6.92; in experiment [4], 5.47. Also, the IC50 in the experiment with HeLa was 7.5 µM. Besides, the outcome in [5], in experiment [6], in experiment [7], in experiment [8], in experiment [9] and in experiment [10] was inactive. The result in experiment [11] was inactive.

Turning to `CCCc1cc(N2CCCC(O)C2)nc2sc(C(N)=O)c(N)c12` (configuration not stated), the pIC50 in [1] is less than 5.15; in experiment [3] it was 6.24; in [4], 4.88. In the experiment on HeLa, this molecule registered an IC50 of 6.1 µM. For the same molecule, the outcome in [5], in [6], in experiment [7], in experiment [8], in experiment [9] and in [10] was inactive. For the same molecule, in experiment [11], the result was inactive.

For the molecule `CCCc1cc(N2CCC(N)CC2)nc2sc(C(N)=O)c(N)c12`, the pIC50 in experiment [1] is less than 5.15; in [2], less than 5.15; in [3], 7.39; in experiment [4] it was 7.05. The molecule further displayed an IC50 with HeLa of 1.5 µM. Moreover, the result in experiment [5], in experiment [6], in [7], in experiment [8], in experiment [9] and in [10] was inactive. In addition, the outcome in experiment [11] was inactive.

On to `CCCc1cc(N2CCC(O)CC2)nc2sc(C(N)=O)c(N)c12`, for which the pIC50 was less than 5.15 in experiment [1], less than 5.15 in experiment [2], 6.55 in [3] and 4.95 in [4]. In addition, in the experiment on HeLa, the IC50 is 5.3 µM. The result in experiment [5], in experiment [6], in [7], in experiment [8], in experiment [9] and in [10] was inactive. Further, the outcome in experiment [11] was inactive.
